Measured values published in patent US9856252B2, “2-(hetero)aryl-benzimidazole and imidazopyridine derivatives as inhibitors of asparagime emethyl transferase” (Cancer Therapeutics CRC Pty Ltd, priority 2013, dated 2018).

Molecular target: Full-length PRMT5 enzyme (NCBI Reference sequence NP_006100.2) co-expressed with His6-MEP50 (Homo sapiens (Human), UniProt O14744)
Test: PRMT5 Biochemical Assay
Settings: histone H4 derived peptide substrate 200 nM, 1 μM S-Adenosyl methionine, 4 hours at 37° C., Transcreener EPIGEN fluorescence polarisation
Protocol: Compounds of the invention may be tested for in vitro activity in the following assay: A histone H4 derived peptide is used as substrate (amino acid sequence: […]N H2). Full-length PRMT5 enzyme (NCBI Reference sequence NP_006100.2) was co-expressed with His6-MEP50 in insect cells and purified via Nickel immobilized metal affinity and gel filtration chromatography (“the enzyme”).
The 6 μL assay reactions are run in Greiner brand black 384-well low volume plates. All reactions contained assay buffer (phosphate buffered saline, 0.01% (v/v) Tween-20, 0.01% (w/v) albumin from chicken egg white, 1 mM dithiothreitol, 200 nM peptide substrate, 1 μM S-Adenosyl methionine, and 15 ng/reaction enzyme, with the enzyme being omitted from negative control reactions. Compounds were added in a volume of 100 nL from dilution series prepared in DMSO, positive and negative control reactions receiving the same volume DMSO without compound. The plates were sealed with adhesive seals and incubated for 4 hours at 37° C. Reaction progress was measured using the Transcreener™ EPIGEN methyltransferase assay (BellBrook Labs, Madison, Wis.) as recommended by the manufacturer. To each reaction 2 μL detection mix were added, containing coupling enzymes, fluorescence polarisation tracer, and AMP antibody. Plates were incubated for 90 minutes before being read on a PerkinElmer EnVision™ plate reader in fluorescence polarisation mode.

Sequence of Full-length PRMT5 enzyme (NCBI Reference sequence NP_006100.2) co-expressed with His6-MEP50 (O14744 whole entry): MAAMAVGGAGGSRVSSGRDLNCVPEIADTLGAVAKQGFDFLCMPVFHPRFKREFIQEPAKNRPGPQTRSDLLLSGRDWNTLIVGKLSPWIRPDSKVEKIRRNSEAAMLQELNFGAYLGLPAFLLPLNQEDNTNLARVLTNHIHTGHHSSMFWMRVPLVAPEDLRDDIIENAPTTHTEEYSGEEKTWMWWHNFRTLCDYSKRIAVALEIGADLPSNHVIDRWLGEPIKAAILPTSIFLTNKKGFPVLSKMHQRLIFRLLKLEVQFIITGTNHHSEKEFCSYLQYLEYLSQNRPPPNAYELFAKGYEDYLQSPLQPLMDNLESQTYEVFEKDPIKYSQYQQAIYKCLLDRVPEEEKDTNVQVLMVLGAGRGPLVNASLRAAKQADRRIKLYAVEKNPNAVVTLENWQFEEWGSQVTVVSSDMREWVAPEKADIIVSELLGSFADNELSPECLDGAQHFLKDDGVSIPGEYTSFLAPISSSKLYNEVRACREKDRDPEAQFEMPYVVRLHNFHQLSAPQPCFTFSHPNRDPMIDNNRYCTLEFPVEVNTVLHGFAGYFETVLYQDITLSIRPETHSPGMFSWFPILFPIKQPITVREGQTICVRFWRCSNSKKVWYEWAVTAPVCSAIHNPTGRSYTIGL
Sequence of Full-length PRMT5 enzyme (NCBI Reference sequence NP_006100.2) co-expressed with His6-MEP50 (Q9BQA1 whole entry partner): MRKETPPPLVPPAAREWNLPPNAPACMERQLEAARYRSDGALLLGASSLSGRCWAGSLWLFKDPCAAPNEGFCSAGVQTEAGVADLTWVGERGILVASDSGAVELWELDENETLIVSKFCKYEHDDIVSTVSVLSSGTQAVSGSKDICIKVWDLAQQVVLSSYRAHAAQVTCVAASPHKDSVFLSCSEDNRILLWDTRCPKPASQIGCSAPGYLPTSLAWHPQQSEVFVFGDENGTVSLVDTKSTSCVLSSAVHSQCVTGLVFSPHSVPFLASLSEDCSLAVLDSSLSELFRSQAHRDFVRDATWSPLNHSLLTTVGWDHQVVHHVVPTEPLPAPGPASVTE

Compound | IC50 [nM]
c1ccc(COc2ccc(-c3nc4ccc(NCC5CCNCC5)nc4[nH]3)cc2)cc1 [Example 52] | 935
CCS(=O)(=O)N1CCN(c2ccc3nc(-c4ccc(OCc5ccccc5)cc4)[nH]c3n2)CC1 [Example 27, 2-(4-(benzyloxy)phenyl)-5-(4-(ethylsulfonyl)piperazin-1-yl)-3H-imidazo[4,5-b]pyridine] | 148
[O-][S+]1CCN(c2ccc3nc(-c4ccc(OCc5ccccc5)cc4)[nH]c3n2)CC1 [Example 24, 4-(2-(4-(benzyloxy)phenyl)-3H-imidazo[4,5-b]pyridin-5-yl)thiomorpholine 1-oxide] | 570
Fc1cccc(COc2ccc(-c3nc4ccc(N5CCNCC5)nc4[nH]3)cc2)c1 [Example 58] | 333
CC(C)(C)OC(=O)N1CCC(CNc2ccc3nc(-c4ccc(OCc5ccccc5)cc4)[nH]c3n2)CC1 [Example 31, tert-butyl 4-(((2-(4-(benzyloxy)phenyl)-3H-imidazo[4,5-b]pyridin-5-yl)amino)methyl)piperidine-1-carboxylate] | 1240
CCS(=O)(=O)N1CCN(c2ccc3nc(-c4ccc(OCc5ccccc5)c(-c5cccnc5)c4)[nH]c3n2)CC1 [Example 71] | 542
c1ccc(COc2ccc(-c3nc4ccc(-c5cncnc5)nc4[nH]3)cc2)cc1 [Example 106] | 9000
CC(=O)N1CC=C(c2ccc3nc(-c4ccc(OCc5ccccc5)cc4)[nH]c3n2)CC1 [Example 98, 1-(4-(2-(4-(benzyloxy)phenyl)-3H-imidazo[4,5-b]pyridin-5-yl)-3,6-dihydropyridin-1 (2H)-yl)ethan-1-one] | 166
Cn1ccc(-c2ccc3nc(-c4ccc(COc5ccccc5)cc4)[nH]c3n2)n1 [Example 38, 5-(1-methyl-1H-pyrazol-3-yl)-2-(4-(phenoxymethyl)phenyl)-3H-imidazo[4,5-b]pyridine] | 2390
NC1CCN(c2ccc3nc(-c4ccc(OCc5ccccc5)cc4)[nH]c3n2)CC1 [Example 54] | 583
c1ccc(COc2ccc(-c3nc4ccc(Nc5cn[nH]c5)nc4[nH]3)cc2)cc1 [Example 20, 2-(4-(benzyloxy)phenyl)-N-(1H-pyrazol-4-yl)-3H-imidazo[4,5-b]pyridin-5-amine] | 847
Fc1ccccc1COc1ccc(-c2nc3ccc(N4CCNCC4)nc3[nH]2)cc1 [Example 57] | 981
CCS(=O)(=O)N1CCN(c2ccc3nc(-c4ccc(OCc5ccccc5)c(OC)c4)[nH]c3n2)CC1 [Example 75, 2-(4-(benzyloxy)-3-methoxyphenyl)-5-(4-(ethylsulfonyl)piperazin-1-yl)-3H-imidazo[4,5-b]pyridine] | 306
CCS(=O)(=O)N1CCN(c2ccc3nc(-c4ccc(OCc5ccccc5)c(C)c4)[nH]c3n2)CC1 [Example 74, 2-(4-(benzyloxy)-3-methylphenyl)-5-(4-(ethylsulfonyl)piperazin-1-yl)-3H-imidazo[4,5-b]pyridine] | 1360
CNC(=O)Cc1ccnc2[nH]c(-c3ccc(OCc4ccccc4)cc3)nc12 [Example 93, 2-(2-(4-(benzyloxy)phenyl)-3H-imidazo[4,5-b]pyridin-7-yl)-N-methylacetamide] | 2140
c1ccc(OCc2ccc(-c3nc4cccnc4[nH]3)cc2)cc1 [Example 1, 2-(4-(phenoxymethyl)phenyl)-3H-imidazo[4,5-b]pyridine] | 1490

Now from value to molecule:

IC50 [nM] | Compound
820 | CS(=O)(=O)N1CCN(c2ccc3nc(-c4ccc(OCc5ccccc5)cc4)[nH]c3n2)CC1 [Example 91, 2-(4-(benzyloxy)phenyl)-5-(4-(methylsulfonyl)piperazin-1-yl)-3H-imidazo[4,5-b]pyridine]
1660 | FC(F)(F)c1ccccc1COc1ccc(-c2nc3ccc(N4CCNCC4)nc3[nH]2)cc1 [Example 60]
426 | NCC1CCN(c2ccc3nc(-c4ccc(OCc5ccccc5)cc4)[nH]c3n2)CC1 [Example 55]
1110 | CS(=O)(=O)N1CCC(c2cnc3[nH]c(-c4ccc(OCc5ccccc5)cc4)nc3c2)CC1 [Example 83, 2-(4-(benzyloxy)phenyl)-6-(1-(methylsulfonyl)piperidin-4-yl)-3H-imidazo[4,5-b]pyridine]
279 | O=S(=O)(C1CC1)N1CCN(c2ccc3nc(-c4ccc(OCc5ccccc5)cc4)[nH]c3n2)CC1 [Example 92, 2-(4-(benzyloxy)phenyl)-5-(4-(cyclopropylsulfonyl)piperazin-1-yl)-3H-imidazo[4,5-b]pyridine]
317 | NCC1CCCN(c2ccc3nc(-c4ccc(OCc5ccccc5)cc4)[nH]c3n2)C1 (centres unmarked) [Example 50]
336 | c1ccc(COc2ccc(-c3nc4cc(C5CCNCC5)cnc4[nH]3)cc2-c2cccnc2)cc1 [Example 64, 2-(4-(benzyloxy)-3-(pyridin-3-yl)phenyl)-6-(piperidin-4-yl)-3H-imidazo[4,5-b]pyridine]
1680 | CC(C)(C)OC(=O)NCC1CCCN(c2ccc3nc(-c4ccc(OCc5ccccc5)cc4)[nH]c3n2)C1 (centres unmarked) [Example 28, tert-butyl ((1-(2-(4-(benzyloxy)phenyl)-3H-imidazo[4,5-b]pyridin-5-yl)piperidin-3-yl)methyl)carbamate]
1670 | Cn1cc(-c2ccc3nc(-c4ccc(OCc5ccccc5)cc4)[nH]c3n2)cn1 [Example 107]
901 | O=C(O)Cc1ccnc2[nH]c(-c3ccc(OCc4ccccc4)cc3)nc12 [Example 77, 2-(2-(4-(benzyloxy)phenyl)-3H-imidazo[4,5-b]pyridin-7-yl)acetic acid]
151 | c1ccc(OCc2ccc(-c3nc4ccc(C5CCNCC5)nc4[nH]3)cc2)cc1 [Example 85, 2-(4-(phenoxymethyl)phenyl)-5-(piperidin-4-yl)-3H-imidazo[4,5-b]pyridine]
482 | CN1CCC(c2cnc3[nH]c(-c4ccc(COc5ccccc5)cc4)nc3c2)CC1 [Example 11, 6-(1-methylpiperidin-4-yl)-2-(4-(phenoxymethyl)phenyl)-3H-imidazo[4,5-b]pyridine]
774 | O=C1CNCCN1c1ccc2nc(-c3ccc(OCc4ccccc4)cc3)[nH]c2n1 [Example 21, 1-(2-(4-(benzyloxy)phenyl)-3H-imidazo[4,5-b]pyridin-5-yl)piperazin-2-one]
148 | CCS(=O)(=O)N1CCC(c2ccc3nc(-c4ccc(OCc5ccccc5)cc4)[nH]c3n2)CC1 [Example 90, 2-(4-(benzyloxy)phenyl)-5-(1-(ethylsulfonyl)piperidin-4-yl)-3H-imidazo[4,5-b]pyridine]
581 | c1ccc(COc2ccc(-c3nc4ccc(NC5CCNCC5)nc4[nH]3)cc2)cc1 [Example 53]
215 | Cn1cc(-c2cc(-c3nc4cc(C5CCNCC5)cnc4[nH]3)ccc2OCc2ccccc2)cn1 [Example 63, 2-(4-(benzyloxy)-3-(1-methyl-1H-pyrazol-4-yl)phenyl)-6-(piperidin-4-yl)-3H-imidazo[4,5-b]pyridine]
487 | CC(=O)NCCNc1ccc2nc(-c3ccc(OCc4ccccc4)cc3)[nH]c2n1 [Example 22, N-(2-((2-(4-(benzyloxy)phenyl)-3H-imidazo[4,5-b]pyridin-5-yl)amino)ethyl)acetamide]
197 | c1ccc(COc2ccc(-c3nc4ccc(N5CCNCC5)nc4[nH]3)cc2)cc1 [Example 47, 2-(4-(benzyloxy)phenyl)-5-(piperazin-1-yl)-3H-imidazo[4,5-b]pyridine]
535 | Fc1ccc(COc2ccc(-c3nc4ccc(N5CCNCC5)nc4[nH]3)cc2)cc1 [Example 59]
